Measurements from PubChem BioAssay (NCI).
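Test compounds were applied to cells in 96-well plates for 48 hours at 5 doses. TGI: concentration producing complete growth inhibition.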

Key:
Assay in all cases: NCI tumour cell line growth inhibition, 48 h
[1] = test system: DMS 114 small cell lung
[2] = test system: DMS 273 small cell lung
[3] = test system: HOP-18 NSCLC
[4] = test system: KM20L2 colon
[5] = test system: LXFL 529 NSCLC
[6] = test system: M19-MEL melanoma
[7] = test system: RXF-631 renal
[8] = test system: SNB-78 CNS
[9] = test system: XF 498 CNS
[10] = test system: P388 leukemia
[11] = test system: P388/ADR leukemia
[12] = test system: SN12K1 renal

Row | Structure (SMILES) | TGI [1] [µM] | TGI [2] [µM] | TGI [3] [µM] | TGI [4] [µM] | TGI [5] [µM] | TGI [6] [µM] | TGI [7] [µM] | TGI [8] [µM] | TGI [9] [µM] | TGI [10] [µM] | TGI [11] [µM] | TGI [12] [µM]
1 | O=C(c1ccc(Cl)cc1)C1OC12C(=O)Nc1ccccc12 (centres undefined) | 26.2 | 25.4 | 27 | 41.3 | 11.8 | 23.3 | 34.7 | 32.4 | 25 | – | – | –
2 | FC1OC2OC1C(OCc1ccccc1)C(OCc1ccccc1)C2OCc1ccccc1 (centres undefined) | > 100 | > 100 | 96.4 | > 100 | > 100 | > 100 | > 100 | > 100 | > 100 | – | – | –
3 | CN1CCc2c1nc(-c1ccc([N+](=O)[O-])cc1)c1c2N(C)CC1 | > 100 | – | > 100 | > 100 | > 100 | > 100 | > 100 | > 100 | > 100 | – | – | –
4 | COc1ccc(CCc2cc(OC)c(OC)c(OC)c2)cc1 | 0.323 | 1.43 | > 100 | 0.049 | 21 | > 100 | 4.45 | 0.0976 | 20.6 | – | – | –
5 | S=c1nc(-c2ccnc(-c3nc(=S)[nH][nH]3)c2)[nH][nH]1 | > 100 | > 100 | > 100 | > 100 | > 100 | > 100 | – | > 100 | > 100 | – | – | –
6 | COc1ccc(S(=O)(=O)N(C)CC(=O)O)cc1 | – | > 100 | > 100 | > 100 | > 100 | > 100 | > 100 | – | > 100 | – | – | –
7 | CCCCCCCCCCCCCCCCOC(=O)c1cc(O)cc(C(=O)OCCCCCCCCCCCCCCCC)c1 | > 100 | > 100 | > 100 | > 100 | > 100 | > 100 | > 100 | > 100 | – | – | – | –
8 | O=C(Nc1cccc(NC(=O)c2cc(=O)c3ccccc3o2)n1)c1cc(=O)c2ccccc2o1 | 92 | 57.8 | – | > 100 | > 100 | > 100 | > 100 | > 100 | – | – | – | –
9 | COc1cc2cc3c4c(cc(OC)c(OC)c4c2cc1OC)CCN3C(=O)CCC(=O)NCCCN(C)C | > 100 | > 100 | > 100 | 67 | > 100 | 55.4 | – | > 100 | > 100 | – | – | –
10 | CCOC(=O)C(NC(=O)c1[nH]cnc1/N=N/N(C)C)C(C)C (centres undefined) | > 100 | > 100 | – | – | > 100 | > 100 | – | – | – | – | – | –
11 | CCOC(=O)[C@H]1Nc2ccccc2C2c3ccccc3CC21 (some centres undefined) | > 100 | > 100 | – | > 100 | > 100 | > 100 | > 100 | > 100 | > 100 | – | – | –
12 | CN(C=O)/C=C/c1cc(O)ccc1O | > 100 | > 54.3 | 31.4 | > 62.4 | 33.6 | 44.9 | > 100 | 56.2 | – | – | – | –
13 | COc1cc2c(c(OC)c1OC)-c1ccc(SC)c(=O)cc1[C@@H](NC(=O)c1ccc(Cl)cc1)CC2 | – | > 100 | – | < 0.01 | 0.169 | > 100 | > 100 | – | – | – | – | –
14 | Nc1ccc(S(=O)(=O)Nc2cnc3c(Cl)cccc3n2)cc1 | 202 | 467 | > 750 | > 750 | – | > 625 | – | 528 | 719 | > 750 | > 750 | 472
15 | O=C1C=CC2(C=C1)C[C@H](NC(=O)C(F)(F)F)C(=O)O2 | > 100 | – | – | > 100 | 69.1 | 63.8 | – | > 100 | – | – | – | –
16 | C[C@@H]1C[C@]2(C[C@@H](C)C3[C@@H](CC4(C)[C@@H]5CCC6C(C)(C)OC(=O)C=C[C@]67C[C@@]5(CC[C@]34C)OO7)O2)OC1=O (some centres undefined) | > 100 | > 100 | > 100 | – | > 100 | – | – | > 100 | 73.9 | – | – | –
